This note sets out measurements from PMC3079629, “Cloning and characterization of a 9-lipoxygenase gene induced by pathogen attack from Nicotiana benthamiana for biotechnological application” (BMC Biotechnology, 2011).

Each structure is given as a SMILES string.

The Km is the substrate concentration at which the rate is half of its maximum.

This test concerns the target T1, Nb-9-LOX (Nicotiana benthamiana, UniProt R4S2V6).
T1 construct: protein starts MSLEKI, ends NSVSI (from primers)
T1 sequence (R4S2V6 1-862): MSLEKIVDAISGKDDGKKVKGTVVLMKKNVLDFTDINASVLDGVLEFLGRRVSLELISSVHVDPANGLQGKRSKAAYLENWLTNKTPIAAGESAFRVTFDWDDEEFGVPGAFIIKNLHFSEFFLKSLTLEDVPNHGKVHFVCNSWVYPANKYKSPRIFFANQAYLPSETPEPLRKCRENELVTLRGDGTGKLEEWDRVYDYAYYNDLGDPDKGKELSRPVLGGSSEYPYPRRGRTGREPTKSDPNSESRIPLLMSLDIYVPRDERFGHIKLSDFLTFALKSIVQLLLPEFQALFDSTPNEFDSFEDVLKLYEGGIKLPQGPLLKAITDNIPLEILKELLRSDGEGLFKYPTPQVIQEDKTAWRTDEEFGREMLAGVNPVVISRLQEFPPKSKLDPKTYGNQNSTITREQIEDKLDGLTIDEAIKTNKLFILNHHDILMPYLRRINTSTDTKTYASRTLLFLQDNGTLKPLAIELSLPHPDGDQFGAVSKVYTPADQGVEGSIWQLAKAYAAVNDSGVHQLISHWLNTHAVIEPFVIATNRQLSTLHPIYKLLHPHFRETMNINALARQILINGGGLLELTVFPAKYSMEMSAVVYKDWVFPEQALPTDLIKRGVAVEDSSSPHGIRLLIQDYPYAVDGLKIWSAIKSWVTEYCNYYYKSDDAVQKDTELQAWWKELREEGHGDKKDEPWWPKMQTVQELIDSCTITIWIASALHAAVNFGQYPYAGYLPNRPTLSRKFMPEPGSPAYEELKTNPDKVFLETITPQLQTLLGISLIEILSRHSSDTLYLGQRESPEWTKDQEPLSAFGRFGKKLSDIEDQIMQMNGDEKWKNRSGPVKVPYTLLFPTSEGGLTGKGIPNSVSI
The test is described as follows: spectrophotometry at […] nm, conjugated diene formation, crude yeast extract. It counts as biochemical. Conditions: 50 mM sodium phosphate; pH 6.0 presumed for the Km (used after the optimum was found); room temperature; O2.

For the compound `CCCCC/C=C\C/C=C\CCCCCCCC(=O)O` [linoleic acid], the Km turned out to be 3.9 µM.
